In patent US20180303101A1, “METHOD OF IMPROVING GRASS QUALITY” (priority 2004, published 2018):

Columns and labels:
Format in all cases: in vivo
[1] = tested on: creeping bentgrass (variety Penncross) turf; assay: Bentgrass color rating after foliar spray (Example 2); details: 6 weeks after treatment; 6.8, 13.9 and 20.4 grams per 1000 sq. ft.; analysis of variance
Text: (§1) Pigment Green 7 was suspended in water and applied as a foliar spray to creeping bentgrass (variety Penncross) turf with a pressurized sprayer at a spray volume of 1.37 gallons of water per 1000 sq. ft. (ca. 560 l/ha). Pigment Green 7 was applied at rates of 6.8, 13.9, and 20.4 grams per 1000 sq. ft. (0.73, 1.5, and 2.2 kg/ha, respectively). Each treatment was replicated 4 times. An untreated plot was included and was also replicated four times. The average color of the bentgrass was visually evaluated at 6 weeks after treatment. Color was evaluated on a qualitative scale from 1-9, with 9 being the highest quality and 1 the lowest quality.

[2] = tested on: Penncross creeping bentgrass; assay: Chlorophyll content at high temperature treatment (Example 1)
Text: (§2) The following test methods were used to compare the effectiveness of a phthalocyanine composition according to the invention with known compositions. The following compositions were used in the experiments: Pigment Green 7 obtained from Sun Chemical Corporation as the water-dispersible product SUN T-64-1660 (containing 45 to 55 wt. % of Pigment Green 7) was used alone. A mixture of Pigment Green 7 and fosetyl-al was used as the commercially available product Chipco® Signature™ fungicide from Bayer Environmental Science, Montvale, N.J. The compound fosetyl-al was used as Chipco® Aliette® WDG fungicide available from Bayer Environmental Science, Montvale N.J.
(§3) Seeds of “Penncross” creeping bentgrass were sown in polyvinyl chloride (PVC) tubes (10 cm in diameter and 20 cm in length) filled with coarse sand. […]
(§4) Chlorophyll and carotenoids were extracted by soaking 50 mg fresh shoots in 20 ml dimethyl sulfoxide (DMSO) in the dark for 72 hours. Absorbance of each extractant at 663 nm, 645 nm, and 470 nm was used to determine chlorophyll content using the formula of Arnon (1949) and carotenoids content using the formula of Lichtenthaler and Wellburn (1983) Canopy photochemical efficiency was estimated by measuring chlorophyll fluorescence (Fv/Fm) using plant photosynthesis efficiency analyzer (available from ADC Bioscientific Limited, Herts, England).

[3] = tested on: Penncross creeping bentgrass; assay: Canopy photochemical efficiency (Fv/Fm) at high temperature treatment (Example 1); details: plants with and without pretreatment
Text: as §2, §3, §4

[4] = tested on: creeping bentgrass (variety Penncross) turf; assay: Bentgrass color rating after foliar spray (Example 4); details: 6 weeks after treatment; iprodione 4 oz/1000 sq. ft.; Pigment Green 7 6.8 or 13.6 g/1000 sq. ft. in combination, 13.6 g alone
Text: as §1
The procedure of Example 2 was repeated using iprodione fungicide (in the form of 26 GT brand iprodione fungicide) at 4 oz/1000 sq. ft. (ca. 1.3 mL/m2), iprodione at 4 oz/1000 sq. ft. (ca. 1.3 mL/m2) plus Pigment Green 7 at 6.8 g/1000 sq. ft. (0.73 kg/ha), iprodione at 4 oz/1000 sq. ft. plus Pigment Green 7 at 13.6 g/1000 sq. ft. (1.5 kg/ha), and Pigment Green 7 at 13.6 g/1000 sq. ft. (1.5 kg/ha). At 6 weeks after treatment, the color ratings were as follows.

[5] = tested on: Penncross creeping bentgrass; assay: Canopy net photosynthetic rate at high temperature treatment (Example 1)
Text: as §2
Seeds of “Penncross” creeping bentgrass were sown in polyvinyl chloride (PVC) tubes (10 cm in diameter and 20 cm in length) filled with coarse sand. Plants were kept in a growth chamber for 90 days before treatment stated to allow root and canopy establishment. The daily temperature in the growth chamber was 20/16° C., the photosynthetic photon flux density was 400 μmol m−2 s−1, and the photoperiod was 12 hours/day. […]
Canopy net photosynthetic rate was measured as described below using a Li-6400 portable photosynthesis system (available from LiCor, Lincoln, NB).

[6] = tested on: Penncross creeping bentgrass; assay: Tiller density at high temperature treatment (Example 1)
Text: as §2
(§5) Seeds of “Penncross” creeping bentgrass were sown in polyvinyl chloride (PVC) tubes (10 cm in diameter and 20 cm in length) filled with coarse sand. Plants were kept in a growth chamber for 90 days before treatment stated to allow root and canopy establishment. The daily temperature in the growth chamber was 20/16° C., the photosynthetic photon flux density was 400 μmol m−2 s−1, and the photoperiod was 12 hours/day. Turf was mowed twice weekly at 4 mm with scissors, irrigated every other day until there was free drainage from the bottom of tubes, and fertilized weekly with 40 ml full-strength Hoagland's nutrient solution (Hoagland and Arnon, 1950). Insecticide was applied to kill whitefly when necessary. […]

[7] = tested on: Penncross creeping bentgrass; assay: Carotenoids content at high temperature treatment (Example 1); details: plants with or without pretreatment
Text: as §2, §3, §4

[8] = tested on: Penncross creeping bentgrass; assay: Final root and canopy biomass at high temperature treatment (Example 1); details: plants with and without pretreatment, end of experiment
Text: as §2, §5

[9] = tested on: creeping bentgrass (variety Penncross) turf; assay: Bentgrass color rating after foliar spray (Example 3); details: 6 weeks after treatment; Aliette 4 oz, Signature 4 and 8 oz, Pigment 6.8 and 13.6 g per 1000 sq. ft.; analysis of variance
Protocol: Fosetyl-al (in the form of Aliette brand fungicide), fosetyl-al plus Pigment Green 7 (in the form of Signature brand Aliette fungicide), and Pigment Green 7 were separately suspended in water and applied as a foliar spray to creeping bentgrass (variety Penncross) turf with a pressurized sprayer at a spray volume of 1.37 gallons of water per 1000 sq. ft. (ca. 560 l/ha).
Treatments were applied at the following rates: • Aliette 4 oz/1000 sq. ft. (ca. 1.3 mL/m2) • Signature 4 oz/1000 sq. ft. (ca. 1.3 mL/m2) • Signature 8 oz/1000 sq. ft. (ca. 2.5 mL/m2) • Pigment 6.8 g/1000 sq. ft. (0.73 kg/ha) • Pigment 13.6 g/1000 sq. ft. (1.5 kg/ha)

Pigment Green 7
Color rating (visual, scale 1-9) versus untreated check [1]: significantly different than the untreated check | Chlorophyll content (fresh weight basis) ([2]; plants with pretreatment): highest | Chlorophyll content (fresh weight basis) ([2]; plants without pretreatment): higher with application of Signature fungicide and Pigment Green 7 than with application of Aliette fungicide | Photochemical efficiency (Fv/Fm) [3]: highest | Color rating versus untreated check [4]: significantly greener than the untreated | Net photosynthetic rate (Pn) ([5]; plants with pretreatment): higher with application of Pigment Green 7 and Signature fungicide than with application of Aliette fungicide and water | Net photosynthetic rate (Pn) ([5]; plants without pretreatment): highest | Tiller density, difference among applications [6]: no significant difference | Carotenoids content [7]: higher with application of Signature fungicide and Pigment Green 7 than with application of Aliette fungicide and water | Canopy biomass (dry weight) [8]: higher with application of Signature fungicide and Pigment Green 7 than with application of Aliette fungicide and water | Roots biomass (dry weight) [8]: higher with application of Signature fungicide and Pigment Green 7 than with application of Aliette fungicide and water | Color rating versus untreated check [9]: significantly different than the untreated check
